# In the supplement of paper PMC10307832:
# How the values were obtained:
# Assay in all cases: relative viability (nuclei count vs DMSO), 5 days (fraction); higher = more cells survive
# Dovitinib + Trametinib = compound: CN1CCN(c2ccc3nc(-c4c(N)c5c(F)cccc5[nH]c4=O)[nH]c3c2)CC1 [Dovitinib] + CC(=O)Nc1cccc(-n2c(=O)n(C3CC3)c(=O)c3c(Nc4ccc(I)cc4F)n(C)c(=O)c(C)c32)c1 [Trametinib] (partner 0.02 µM)
# Summary of the method: (§1)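 For relative viability, nuclei counts in treated wells were divided by those in vehicle wells. Lung cancer cell lines had been pin-tool dosed in 1536-well plates the day after seeding and cultured for 5 days, then fixed and stained in one step (final 0.05% Triton X-100, 1% formaldehyde, 1 ug/ml Hoechst) and imaged at 4×. Doses were one drug alone or a fixed anchor-drug dose plus five library-drug doses (not always all listed) in √10 steps, and values are duplicate-plate medians.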
# Dovitinib + Crizotinib = compound: CN1CCN(c2ccc3nc(-c4c(N)c5c(F)cccc5[nH]c4=O)[nH]c3c2)CC1 [Dovitinib] + C[C@@H](Oc1cc(-c2cnn(C3CCNCC3)c2)cnc1N)c1c(Cl)ccc(F)c1Cl [Crizotinib] (partner 1 µM)
# Summary of the method: as §1
# Dovitinib + Phenformin = compound: CN1CCN(c2ccc3nc(-c4c(N)c5c(F)cccc5[nH]c4=O)[nH]c3c2)CC1 [Dovitinib] + N=C(N)NC(=N)NCCc1ccccc1 [Phenformin] (partner 250 µM)
# Summary of the method: as §1
# Dovitinib + OSI-027 = compound: CN1CCN(c2ccc3nc(-c4c(N)c5c(F)cccc5[nH]c4=O)[nH]c3c2)CC1 [Dovitinib] + COc1cccc2cc(-c3nc([C@H]4CC[C@H](C(=O)O)CC4)n4ncnc(N)c34)[nH]c12 [OSI-027] (partner 0.5 µM)
# Summary of the method: as §1
Cell Line,relative viability (Dovitinib + Trametinib; first compound 0.02 µM),relative viability (Dovitinib + Trametinib; first compound 0.06325 µM),relative viability (Dovitinib + Trametinib; first compound 0.2 µM),relative viability (Dovitinib + Trametinib; first compound 0.6325 µM),relative viability (Dovitinib + Trametinib; first compound 2 µM),relative viability (Dovitinib + Crizotinib; first compound 0.02 µM),relative viability (Dovitinib + Crizotinib; first compound 0.06325 µM),relative viability (Dovitinib + Crizotinib; first compound 0.2 µM),relative viability (Dovitinib + Crizotinib; first compound 0.6325 µM),relative viability (Dovitinib + Crizotinib; first compound 2 µM),relative viability (Dovitinib + Phenformin; first compound 0.02 µM),relative viability (Dovitinib + Phenformin; first compound 0.06325 µM),relative viability (Dovitinib + Phenformin; first compound 0.2 µM),relative viability (Dovitinib + Phenformin; first compound 0.6325 µM),relative viability (Dovitinib + Phenformin; first compound 2 µM),relative viability (Dovitinib + OSI-027; first compound 0.02 µM),relative viability (Dovitinib + OSI-027; first compound 0.06325 µM),relative viability (Dovitinib + OSI-027; first compound 0.2 µM),relative viability (Dovitinib + OSI-027; first compound 0.6325 µM),relative viability (Dovitinib + OSI-027; first compound 2 µM)
NCI-H322M,0.557,0.506,0.507,0.496,0.543,0.893,0.874,0.976,0.928,1.06,0.685,0.737,0.811,0.751,0.815,0.518,0.526,0.557,0.502,0.608
NCI-H358,0.156,0.144,0.154,0.19,0.143,0.569,0.566,0.507,0.459,0.793,0.291,0.357,0.408,0.317,0.319,0.703,0.769,0.905,0.819,0.739
NCI-H441,0.486,0.477,0.434,0.441,0.49,0.597,0.661,0.715,0.862,0.798,0.981,0.786,0.767,0.898,0.839,0.639,0.565,0.682,0.61,0.644
NCI-H460,0.161,0.146,0.206,0.224,0.128,0.852,1.02,0.869,0.941,0.919,0.488,0.563,0.517,0.49,0.498,0.587,0.842,0.708,0.708,0.721
NCI-H520,0.599,0.619,0.812,0.586,0.638,0.746,0.724,0.782,0.781,0.798,0.558,0.572,0.625,0.514,0.545,0.279,0.248,0.334,0.244,0.23
NCI-H596,0.701,0.844,0.764,0.694,0.777,0.989,0.916,1.11,1.14,0.984,0.711,0.864,0.785,0.815,0.804,0.644,0.776,0.669,0.808,0.779
NCI-H647,0.456,0.49,0.435,0.399,0.494,1.03,1.14,1.24,1.01,1.1,0.396,0.49,0.638,0.621,0.48,0.608,0.758,0.817,0.657,0.802
NCI-H650,1.02,0.952,1.08,0.946,1.21,0.771,0.638,0.563,0.645,0.789,0.442,0.417,0.446,0.461,0.504,0.503,0.515,0.538,0.521,0.565
NCI-H661,0.581,0.617,0.678,0.637,0.607,0.915,0.863,0.928,0.942,0.891,0.267,0.328,0.304,0.268,0.308,0.689,0.706,0.753,0.732,0.729
NCI-H727,0.405,0.401,0.407,0.416,0.426,0.42,0.757,0.657,0.877,0.813,0.524,0.488,0.664,0.516,0.642,0.778,0.434,0.589,0.653,0.548
NCI-H838,0.514,0.499,0.487,0.477,0.543,0.788,0.817,0.818,0.816,0.785,0.553,0.627,0.74,0.62,0.662,0.324,0.41,0.385,0.37,0.471
NCI-H1355,0.461,0.405,0.475,0.45,0.492,1.06,1.02,1.06,1.09,1.06,0.428,0.428,0.477,0.433,0.529,0.443,0.386,0.392,0.48,0.388
NCI-H1437,0.564,0.475,0.521,0.519,0.462,0.867,0.947,0.781,0.929,0.868,0.297,0.292,0.595,0.304,0.346,0.877,0.881,0.867,0.903,0.916
NCI-H1650,0.718,0.625,0.757,0.598,0.816,0.945,1.02,1.06,1.14,1.02,0.517,0.5,0.513,0.448,0.388,0.687,0.619,0.621,0.711,0.768
NCI-H1651,0.852,0.809,0.816,0.81,0.857,0.927,0.882,0.824,0.829,0.858,0.336,0.352,0.485,0.347,0.275,0.733,0.723,0.765,0.77,0.688
NCI-H1666,1.02,0.881,0.939,0.945,0.855,0.966,1.14,1.08,0.964,1.04,0.612,0.579,0.588,0.554,0.566,0.931,0.882,0.838,0.875,0.909
